ChEMBL document CHEMBL1159382, “New antimalarial bis-dehydroaporphine alkaloids from Polyalthia debilis” (J Nat Prod, 2003)
In brackets after ≈: the same amount, converted by molar mass.

System: Plasmodium falciparum
Assay: Antimalarial activity against multidrug-resistant Plasmodium falciparum K1 by [3H]hypoxanthine uptake
Format: functional, organism-based

Row | SMILES | IC50 [µg/mL]
1 | C[C@@H]1CC[C@H]2[C@@H](C)C(=O)O[C@@H]3O[C@@]4(C)CC[C@@H]1[C@]32OO4 [ARTEMISININ] | 0.001 (≈ 0.00354 µM)
2 | COc1cccc2c1c(-c1c3c4c(cc5c(c4c4cccc(OC)c14)OCO5)CCN3)c1c3c(cc4c(c32)OCO4)CCN1 [BIDEBILINE C] | 5.4 (≈ 9.24 µM)
3 | COc1ccc2c(-c3c4c5c(cc6c(c5c5cc(OC)ccc35)OCO6)CCN4)c3c4c(cc5c(c4c2c1)OCO5)CCN3 [BIDEBILINE D] | 4.1 (≈ 7.01 µM)
